Measurements from patent US11020399B2, “Intermediates useful in the synthesis of compounds as modulators of protein kinases” (Rhizen Pharmaceuticals SA, priority 2011, dated 2021).

Tests used:
Assay type in all cases: biochemical
PI3kδ = PI3kδ (Homo sapiens, UniProt O00329); assay: Fluorescent (HTRF) determination of PI3 kinase enzyme activity, PI3Kδ; settings: for inhibition at 0.3 µM: 300 nM (Examples 1-59)
Description: (§1) Assay 1: Fluorescent Determination of PI3Kinase Kinase Enzyme Activity
(§2) Phosphoinositide 3 kinases (PI3K) belong to a class of lipid kinases that play a critical role in the regulation of several key cellular processes. The PI3K are capable of phosphorylating the 3-hydroxy position of phosphoinositols thereby generating second messengers involved in downstream signalling events. The homogenous time resolved fluorescence (HTRF) assay allows detection of 3,4,5-triphosphate (PIP3) formed as a result of phosphorylation of phosphotidylinositol 4,5-biphosphate (PIP2) by PI3K isoforms such as α, β, γ or δ. PI3K isoform activity for a, p, y or 8 was determined using a PI3K human HTRF™ Assay Kit (Millipore, Billerica, Mass.) with modifications. All incubations were carried out at room temperature. Briefly, 0.5 μl of 40× inhibitor (in 100% DMSO) or 100% DMSO were added to each well of a 384-well black plate (Greiner Bio-One, Monroe, N.C.) containing 14.5 μl IX reaction buffer /PIP2 (10 mM MgCl2, 5 mM DTT, 1.38 μM PIP2) mix with or without enzyme and incubated for 10 min. After the initial incubation, 5 μl/well of 400 μM ATP was added and incubated for an additional 30 minutes. Reaction was terminated by adding 5 μl/well stop solution (Millipore, Billerica, Mass.). Five microliters of detection mix (Millipore, Billerica, Mass.) were then added to each well and was incubated for 6-18 h in the dark. HRTF ratio was measured on a microplate reader (BMG Labtech., Germany) at an excitation wavelength of 337 nm and emission wavelengths of 665 and 620 nm with an integration time of 400 μsec.
(§3) Data were analyzed using Graphpad Prism (Graphpad software; San Diego Calif.) for IC50 determination. Examples 1-59 were tested at 1 uM for Pi3kα & Pi3k β and at 0.3 uM for γ and δ. Examples 60-137 were tested at 1 uM for Pi3kα & Pi3k β and at 0.1 uM for γ and δ. Percent inhibition was calculated based on the values for the blank and enzyme controls. The results are as provided in Table 2 (wherein D=0 to 25%; C=>25 to 50%; B=>50 to 75%; A=>75 to 100%; +++++=≤50 nM; ++++=>50 to ≤100 nM; +++=>100 to ≤300 nM; ++=>300 to ≤500 nM; +=>500 nM)

PI3kγ = PI3kγ (Homo sapiens, UniProt P48736); assay: Fluorescent (HTRF) determination of PI3 kinase enzyme activity, PI3Kγ; settings: for inhibition at 0.3 µM: 300 nM (Examples 1-59)
Chain of PI3kγ (P48736 whole entry): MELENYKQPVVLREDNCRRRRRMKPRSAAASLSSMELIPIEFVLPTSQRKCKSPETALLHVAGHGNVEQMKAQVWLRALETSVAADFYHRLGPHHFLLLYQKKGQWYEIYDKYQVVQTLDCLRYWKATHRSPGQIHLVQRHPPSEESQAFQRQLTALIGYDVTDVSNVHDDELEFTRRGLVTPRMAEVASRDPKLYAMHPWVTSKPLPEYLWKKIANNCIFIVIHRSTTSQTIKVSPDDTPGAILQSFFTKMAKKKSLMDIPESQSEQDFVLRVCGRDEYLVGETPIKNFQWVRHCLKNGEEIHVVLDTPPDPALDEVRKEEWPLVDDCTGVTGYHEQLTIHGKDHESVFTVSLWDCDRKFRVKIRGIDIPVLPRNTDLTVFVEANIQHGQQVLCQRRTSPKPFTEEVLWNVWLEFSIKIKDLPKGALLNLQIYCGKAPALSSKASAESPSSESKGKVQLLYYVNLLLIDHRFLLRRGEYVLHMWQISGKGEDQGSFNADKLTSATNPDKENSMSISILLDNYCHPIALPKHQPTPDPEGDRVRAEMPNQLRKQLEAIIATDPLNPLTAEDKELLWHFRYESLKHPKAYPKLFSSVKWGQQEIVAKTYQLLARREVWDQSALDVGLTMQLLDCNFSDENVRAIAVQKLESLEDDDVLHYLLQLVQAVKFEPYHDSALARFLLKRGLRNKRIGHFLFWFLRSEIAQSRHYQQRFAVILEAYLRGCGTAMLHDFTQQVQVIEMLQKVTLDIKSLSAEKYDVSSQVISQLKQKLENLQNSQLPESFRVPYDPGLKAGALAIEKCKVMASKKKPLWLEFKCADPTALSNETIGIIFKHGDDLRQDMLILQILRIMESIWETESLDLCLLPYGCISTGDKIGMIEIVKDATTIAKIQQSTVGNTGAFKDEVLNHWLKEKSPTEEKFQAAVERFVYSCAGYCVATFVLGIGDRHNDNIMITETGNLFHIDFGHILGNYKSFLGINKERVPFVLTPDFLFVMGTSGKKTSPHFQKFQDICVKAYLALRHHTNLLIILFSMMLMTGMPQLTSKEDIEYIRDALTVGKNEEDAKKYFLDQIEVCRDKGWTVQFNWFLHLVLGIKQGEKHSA
Description: as §1, §2, §3

PI3kβ = PI3kβ (Homo sapiens, UniProt P42338); assay: Fluorescent (HTRF) determination of PI3 kinase enzyme activity, PI3Kβ; settings: 1 uM
Chain of PI3kβ (P42338 whole entry): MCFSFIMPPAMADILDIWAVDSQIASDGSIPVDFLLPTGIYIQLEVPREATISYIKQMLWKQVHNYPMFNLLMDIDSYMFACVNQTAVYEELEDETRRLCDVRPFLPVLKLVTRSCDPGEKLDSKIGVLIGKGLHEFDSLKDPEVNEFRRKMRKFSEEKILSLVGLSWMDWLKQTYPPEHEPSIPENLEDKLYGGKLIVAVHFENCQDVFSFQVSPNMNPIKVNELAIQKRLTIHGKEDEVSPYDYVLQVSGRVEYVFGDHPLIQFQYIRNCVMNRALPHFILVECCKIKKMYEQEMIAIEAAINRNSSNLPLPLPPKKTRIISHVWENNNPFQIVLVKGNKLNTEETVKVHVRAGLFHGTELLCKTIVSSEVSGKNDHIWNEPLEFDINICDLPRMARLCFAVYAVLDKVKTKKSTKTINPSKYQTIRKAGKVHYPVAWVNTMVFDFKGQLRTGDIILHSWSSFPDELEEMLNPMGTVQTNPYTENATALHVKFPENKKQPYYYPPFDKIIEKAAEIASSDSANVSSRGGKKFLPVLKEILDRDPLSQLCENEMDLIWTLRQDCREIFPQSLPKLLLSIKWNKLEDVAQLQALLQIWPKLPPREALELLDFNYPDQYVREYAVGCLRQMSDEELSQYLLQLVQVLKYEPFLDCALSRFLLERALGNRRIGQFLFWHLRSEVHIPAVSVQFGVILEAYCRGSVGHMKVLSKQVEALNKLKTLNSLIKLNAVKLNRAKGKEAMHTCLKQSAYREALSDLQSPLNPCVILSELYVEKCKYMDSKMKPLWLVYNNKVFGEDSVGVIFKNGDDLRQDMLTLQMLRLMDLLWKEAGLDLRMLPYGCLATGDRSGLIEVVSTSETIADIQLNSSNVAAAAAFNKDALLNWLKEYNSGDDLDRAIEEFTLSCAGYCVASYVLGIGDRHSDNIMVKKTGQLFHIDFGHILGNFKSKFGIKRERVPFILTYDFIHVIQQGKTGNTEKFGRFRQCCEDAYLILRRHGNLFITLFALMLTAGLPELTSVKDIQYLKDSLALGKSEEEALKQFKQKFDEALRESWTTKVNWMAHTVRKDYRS
Chain of PI3kβ (P27986 whole entry partner): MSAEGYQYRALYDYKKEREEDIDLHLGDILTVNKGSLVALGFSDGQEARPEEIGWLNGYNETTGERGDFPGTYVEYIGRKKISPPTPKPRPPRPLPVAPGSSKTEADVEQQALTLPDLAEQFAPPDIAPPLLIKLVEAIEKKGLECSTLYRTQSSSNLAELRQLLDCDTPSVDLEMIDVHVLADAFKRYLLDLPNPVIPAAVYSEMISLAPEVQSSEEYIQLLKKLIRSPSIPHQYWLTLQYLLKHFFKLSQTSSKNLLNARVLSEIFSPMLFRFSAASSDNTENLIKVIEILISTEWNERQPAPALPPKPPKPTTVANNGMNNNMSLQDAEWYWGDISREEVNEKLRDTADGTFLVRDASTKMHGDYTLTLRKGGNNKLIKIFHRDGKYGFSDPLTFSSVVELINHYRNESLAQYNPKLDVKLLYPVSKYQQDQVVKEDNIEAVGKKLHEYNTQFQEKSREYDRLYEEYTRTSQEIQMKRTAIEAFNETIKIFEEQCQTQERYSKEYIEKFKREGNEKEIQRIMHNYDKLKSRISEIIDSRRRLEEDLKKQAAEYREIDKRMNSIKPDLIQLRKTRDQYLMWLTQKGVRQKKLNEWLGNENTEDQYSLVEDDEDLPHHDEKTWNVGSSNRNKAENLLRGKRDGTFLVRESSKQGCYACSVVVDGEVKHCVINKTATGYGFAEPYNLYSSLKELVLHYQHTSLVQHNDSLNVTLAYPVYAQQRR
Description: as §1, §2, §3

PI3kα = PI3kα (Homo sapiens, UniProt P42336); assay: Fluorescent (HTRF) determination of PI3 kinase enzyme activity, PI3Kα; settings: 1 uM
Chain of PI3kα (P42336 whole entry): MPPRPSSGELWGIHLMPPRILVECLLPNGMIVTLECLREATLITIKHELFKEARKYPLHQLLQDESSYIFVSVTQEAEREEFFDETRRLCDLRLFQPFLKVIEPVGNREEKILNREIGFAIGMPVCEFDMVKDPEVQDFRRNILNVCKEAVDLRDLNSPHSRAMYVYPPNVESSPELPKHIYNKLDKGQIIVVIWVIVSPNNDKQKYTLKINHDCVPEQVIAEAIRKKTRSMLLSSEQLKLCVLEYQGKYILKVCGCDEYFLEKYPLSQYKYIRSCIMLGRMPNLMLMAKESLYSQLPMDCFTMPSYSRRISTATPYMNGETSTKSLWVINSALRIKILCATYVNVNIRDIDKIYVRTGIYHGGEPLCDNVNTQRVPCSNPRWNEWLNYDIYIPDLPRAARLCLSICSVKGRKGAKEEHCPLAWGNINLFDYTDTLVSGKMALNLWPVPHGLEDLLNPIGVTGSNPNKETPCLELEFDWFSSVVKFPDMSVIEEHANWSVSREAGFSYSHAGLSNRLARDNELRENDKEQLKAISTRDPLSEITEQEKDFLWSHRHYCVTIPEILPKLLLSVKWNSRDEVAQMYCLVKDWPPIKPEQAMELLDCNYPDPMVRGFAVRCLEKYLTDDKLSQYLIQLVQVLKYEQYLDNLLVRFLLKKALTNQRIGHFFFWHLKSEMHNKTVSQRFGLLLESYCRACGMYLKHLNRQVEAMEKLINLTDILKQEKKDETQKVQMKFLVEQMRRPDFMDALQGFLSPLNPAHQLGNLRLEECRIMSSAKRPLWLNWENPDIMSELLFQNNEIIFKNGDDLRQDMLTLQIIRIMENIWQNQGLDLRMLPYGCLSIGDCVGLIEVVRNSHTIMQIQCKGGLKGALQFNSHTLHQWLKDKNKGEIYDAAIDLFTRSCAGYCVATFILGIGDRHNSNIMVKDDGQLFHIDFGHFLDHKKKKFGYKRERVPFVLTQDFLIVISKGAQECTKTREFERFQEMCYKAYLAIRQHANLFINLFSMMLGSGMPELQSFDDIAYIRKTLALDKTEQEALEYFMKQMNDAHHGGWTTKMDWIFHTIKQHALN
Chain of PI3kα (P27986 whole entry partner): as the sequence (P27986 whole entry partner) above
Description: as §1, §2, §3

Chain of PI3kδ (O00329 whole entry): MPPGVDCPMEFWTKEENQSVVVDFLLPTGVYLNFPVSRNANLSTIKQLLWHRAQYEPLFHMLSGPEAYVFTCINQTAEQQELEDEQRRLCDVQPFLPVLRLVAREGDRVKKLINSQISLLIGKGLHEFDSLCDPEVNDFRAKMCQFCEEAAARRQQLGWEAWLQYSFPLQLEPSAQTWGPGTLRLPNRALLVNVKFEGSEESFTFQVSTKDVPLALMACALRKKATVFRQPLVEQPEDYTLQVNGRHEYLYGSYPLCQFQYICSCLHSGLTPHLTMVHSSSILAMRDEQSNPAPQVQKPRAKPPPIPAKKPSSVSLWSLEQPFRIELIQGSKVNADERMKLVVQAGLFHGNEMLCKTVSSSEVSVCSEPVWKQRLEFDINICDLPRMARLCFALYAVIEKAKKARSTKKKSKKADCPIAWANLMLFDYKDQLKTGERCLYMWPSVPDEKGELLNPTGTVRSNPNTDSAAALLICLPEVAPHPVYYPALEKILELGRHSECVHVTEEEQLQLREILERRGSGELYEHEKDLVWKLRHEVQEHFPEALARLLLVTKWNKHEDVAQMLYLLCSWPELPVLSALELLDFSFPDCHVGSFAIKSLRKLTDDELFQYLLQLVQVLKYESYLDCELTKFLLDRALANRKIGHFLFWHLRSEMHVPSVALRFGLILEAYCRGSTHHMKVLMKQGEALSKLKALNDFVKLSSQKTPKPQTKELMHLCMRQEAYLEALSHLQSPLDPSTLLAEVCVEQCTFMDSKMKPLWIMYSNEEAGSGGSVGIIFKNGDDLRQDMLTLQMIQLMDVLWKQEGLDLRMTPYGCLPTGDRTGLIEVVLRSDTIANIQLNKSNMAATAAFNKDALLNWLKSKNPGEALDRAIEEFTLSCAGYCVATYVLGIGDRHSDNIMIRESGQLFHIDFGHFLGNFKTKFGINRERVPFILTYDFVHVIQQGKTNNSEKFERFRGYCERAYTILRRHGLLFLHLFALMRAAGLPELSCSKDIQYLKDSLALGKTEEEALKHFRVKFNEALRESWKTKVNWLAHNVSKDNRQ
Chain of PI3kδ (P27986 whole entry partner): as the sequence (P27986 whole entry partner) above

Row | Structure (SMILES) | inhibition at 0.3 µM (PI3kδ) [%] | inhibition at 0.3 µM (PI3kγ) [%] | inhibition at 1 µM (PI3kβ) [%] | inhibition at 1 µM (PI3kα) [%] | IC50 (PI3kγ) [nM] | % inhibition (PI3kβ) 1 uM (PI3kβ) | % inhibition (PI3kα) 1 uM (PI3kα) | IC50 (PI3kδ) [nM]
1 | CC(c1oc2cccc(F)c2c(=O)c1-c1cccc(F)c1)n1cnc2c(N)ncnc21 (stereo not shown) [Example 11, 2-(1-(6-amino-9H-purin-9-yl)ethyl)-5-fluoro-3-(3-fluorophenyl)-4H-chromen-4-one] | 50 to 75 | 25 to 50 | 50 to 75 | 50 to 75 |  |  |  | 
2 | CC(C)Oc1ccc(-c2nn(C(C)c3oc4cccc(F)c4c(=O)c3-c3ccc(F)cc3)c3ncnc(N)c23)cc1F (stereo not shown) [Example 12, 2-(1-(4-amino-3-(3-fluoro-4-isopropoxyphenyl)-1H-pyrazolo[3,4-d]pyrimidin-1-yl)ethyl)-5-fluoro-3-(4-fluorophenyl)-4H-chromen-4-one] | 25 to 50 | 75 to 100 |  |  | 100 to 300 | C (C=>25 to 50%) | D (D=0 to 25%) | 
3 | CC(C)Oc1ccc(-c2nn(C(C)c3oc4cccc(F)c4c(=O)c3-c3ccccc3)c3ncnc(N)c23)cc1F (stereo not shown) [Example 13, 2-(1-(4-amino-3-(3-fluoro-4-isopropoxyphenyl)-1H-pyrazolo[3,4-d]pyrimidin-1-yl)ethyl)-5-fluoro-3-phenyl-4H-chromen-4-one] | 75 to 100 | 50 to 75 |  |  |  | D (D=0 to 25%) | D (D=0 to 25%) | ≤ 50
4 | CC(c1oc2cccc(F)c2c(=O)c1-c1cccc(F)c1)n1nc(-c2cc3ccccc3o2)c2c(N)ncnc21 (stereo not shown) [Example 14, 2-(1-(4-amino-3-(benzofuran-2-yl)-1H-pyrazolo[3,4-d]pyrimidin-1-yl)ethyl)-5-fluoro-3-(3-fluorophenyl)-4H-chromen-4-one] | 75 to 100 | 75 to 100 | 0 to 25 | 25 to 50 | 50 to 100 |  |  | 50 to 100
5 | CC(c1oc2cccc(F)c2c(=O)c1-c1cccc(F)c1)n1ncc2c(N)ncnc21 (stereo not shown) [Example 16, 2-(1-(4-amino-1H-pyrazolo[3,4-d]pyrimidin-1-yl)ethyl)-5-fluoro-3-(3-fluorophenyl)-4H-chromen-4-one] | 75 to 100 | 0 to 25 | 0 to 25 | 25 to 50 |  |  |  | 50 to 100
6 | CC(c1oc2cccc(F)c2c(=O)c1-c1cccc(F)c1)n1nc(-c2ccc(OC(F)F)c(F)c2)c2c(N)ncnc21 (stereo not shown) [Example 17, 2-(1-(4-amino-3-(4-(difluoromethoxy)-3-fluorophenyl)-1H-pyrazolo[3,4-d]pyrimidin-1-yl)ethyl)-5-fluoro-3-(3-fluorophenyl)-4H-chromen-4-one] | 75 to 100 | 25 to 50 | 25 to 50 | 0 to 25 |  |  |  | 
7 | CC(C)Oc1ccc(-c2nn(C(C)c3oc4cccc(F)c4c(=O)c3-c3cn[nH]c3)c3ncnc(N)c23)cc1F (stereo not shown) [Example 18, 2-(1-(4-amino-3-(3-fluoro-4-isopropoxyphenyl)-1H-pyrazolo[3,4-d]pyrimidin-1-yl)ethyl)-5-fluoro-3-(1H-pyrazol-4-yl)-4H-chromen-4-one] | 75 to 100 | 50 to 75 | 0 to 25 | 0 to 25 |  |  |  | 50 to 100
8 | CC(c1oc2cccc(F)c2c(=O)c1-c1cccc(F)c1)n1nc(-c2ccc(OC3CCOCC3)c(F)c2)c2c(N)ncnc21 (stereo not shown) [Example 19, 2-(1-(4-amino-3-(3-fluoro-4-(tetrahydro-2H-pyran-4-yloxy)phenyl)-1H-pyrazolo[3,4-d]pyrimidin-1-yl)ethyl)-5-fluoro-3-(3-fluorophenyl)-4H-chromen-4-one] | 50 to 75 | 75 to 100 | 25 to 50 | 25 to 50 |  |  |  | 
9 | CC(C)c1n[nH]c2cc(-c3nn(C(C)c4oc5cccc(F)c5c(=O)c4-c4cccc(F)c4)c4ncnc(N)c34)ccc12 (stereo not shown) [Example 20, 2-(1-(4-amino-3-(3-isopropyl-1H-indazol-6-yl)-1H-pyrazolo[3,4-d]pyrimidin-1-yl)ethyl)-5-fluoro-3-(3-fluorophenyl)-4H-chromen-4-one] | 75 to 100 | 0 to 25 | 25 to 50 | 0 to 25 |  |  |  | 50 to 100
